Calls of active or inactive are those of the source. The calls are words filed in the database; no cut-off is given here.
Columns and labels:
MIA PaCa-2 [1] = assay: Inhibition of autophagy in human MIA PaCa-2 cells in DMEM medium assessed as downregulation of LC3 protein expression at 5 to 20 uM measured after 6 hrs by Western blot analysis; assay type: functional, cell-based; settings: dose 5-20 µM
MIA PaCa-2 [2] = assay: Antitumor activity against human MIA PaCa-2 cells xenografted in athymic BALB/c-nu mouse assessed as fold change in N-acetyl- L-glutamic acid level in tumor at 2 mg/kg/day, ip administered five times per week for 4 weeks by LC-MS analysis; assay type: functional
MIA PaCa-2 [3] = assay: Antitumor activity against human MIA PaCa-2 cells xenografted in athymic BALB/c-nu mouse assessed as fold change in 3-sulfolacticacid level in tumor at 10 mg/kg/day, ip administered five times per week for 4 weeks by LC-MS analysis; assay type: functional
MIA PaCa-2 [4] = assay: Antitumor activity against human MIA PaCa-2 cells xenografted in athymic BALB/c-nu mouse assessed as fold change in tetramethyl urea level in tumor at 10 mg/kg/day, ip administered five times per week for 4 weeks by LC-MS analysis; assay type: functional
MIA PaCa-2 [5] = assay: Antitumor activity against human MIA PaCa-2 cells xenografted in athymic BALB/c-nu mouse assessed as fold change in D-glucosamine 6-phosphate level in tumor at 10 mg/kg/day, ip administered five times per week for 4 weeks by LC-MS analysis; assay type: functional
MIA PaCa-2 [6] = assay: Antitumor activity against human MIA PaCa-2 cells xenografted in athymic BALB/c-nu mouse assessed as fold change in phenyl alanine level in tumor at 2 mg/kg/day, ip administered five times per week for 4 weeks by LC-MS analysis; assay type: functional
MIA PaCa-2 [7] = assay: Antitumor activity against human MIA PaCa-2 cells xenografted in athymic BALB/c-nu mouse assessed as fold change in N-acetyl-L-glutamicacid level in tumor at 10 mg/kg/day, ip administered five times per week for 4 weeks by LC-MS analysis; assay type: functional
MIA PaCa-2 [8] = assay: Antitumor activity against human MIA PaCa-2 cells xenografted in athymic BALB/c-nu mouse assessed as fold change in hypoxanthine level in tumor at 2 mg/kg/day, ip administered five times per week for 4 weeks by LC-MS analysis; assay type: functional
MIA PaCa-2 [9] = assay: Antitumor activity against human MIA PaCa-2 cells xenografted in athymic BALB/c-nu mouse assessed as fold change in benzoic acid level in tumor at 2 mg/kg/day, ip administered five times per week for 4 weeks by LC-MS analysis; assay type: functional
MIA PaCa-2 [10] = assay: Antitumor activity against human MIA PaCa-2 cells xenografted in athymic BALB/c-nu mouse assessed as fold change in D-glucosamine 6-phosphate level in tumor at 2 mg/kg/day, ip administered five times per week for 4 weeks by LC-MS analysis; assay type: functional
MIA PaCa-2 [11] = assay: Antitumor activity against human MIA PaCa-2 cells xenografted in athymic BALB/c-nu mouse assessed as fold change in cytidine 5'-monophosphate-N-acetylneuraminic acid level in tumor at 10 mg/kg/day, ip administered five times per week for 4 weeks by LC-MS analysis; assay type: functional
MIA PaCa-2 [12] = assay: Antimetastatic activity in human MIA PaCa-2 cells in DMEM media assessed as inhibition of colony formation at 40 uM incubated for 24 hrs followed by replacement with fresh medium and measured after 10 days by crystal violet staining-based assay relative to control; assay type: functional
MIA PaCa-2 [13] = assay: Antitumor activity against human MIA PaCa-2 cells xenografted in athymic BALB/c-nu mouse assessed as fold change in valine level in tumor at 2 mg/kg/day, ip administered five times per week for 4 weeks by LC-MS analysis; assay type: functional
MIA PaCa-2 [14] = assay: Antitumor activity against human MIA PaCa-2 cells xenografted in athymic BALB/c-nu mouse assessed as fold change in methionine level in tumor at 10 mg/kg/day, ip administered five times per week for 4 weeks by LC-MS analysis; assay type: functional
PANC-1 [15] = assay: Antimetastatic activity in human PANC-1 cells in nutrient-rich medium assessed as open wound area at 20 uM measured every 15 mins for 48 hrs by live cell imaging analysis relative to control; assay type: functional
MIA PaCa-2 [16] = assay: Antitumor activity against human MIA PaCa-2 cells xenografted in athymic BALB/c-nu mouse assessed as fold change in cytidine level in tumor at 2 mg/kg/day, ip administered five times per week for 4 weeks by LC-MS analysis; assay type: functional
PANC-1 [17] = assay: Inhibition of Akt/mTOR signaling pathway in human PANC-1 cells in DMEM media assessed as reduction in mTOR phosphorylation at S2481 residue at 5 to 20 uM measured after 6 hrs by Western blot analysis; assay type: cell-based; settings: dose 5-20 µM
MIA PaCa-2 [18] = assay: Antitumor activity against human MIA PaCa-2 cells xenografted in athymic BALB/c-nu mouse assessed as fold change in tetramethyl urea level in tumor at 2 mg/kg/day, ip administered five times per week for 4 weeks by LC-MS analysis; assay type: functional
MIA PaCa-2 [19] = assay: Antitumor activity against human MIA PaCa-2 cells xenografted in athymic BALB/c-nu mouse assessed as fold change in valine level in tumor at 10 mg/kg/day, ip administered five times per week for 4 weeks by LC-MS analysis; assay type: functional
MIA PaCa-2 [20] = assay: Antitumor activity against human MIA PaCa-2 cells xenografted in athymic BALB/c-nu mouse assessed as fold change in cytidine diphosphate ethanolamine level in tumor at 10 mg/kg/day, ip administered five times per week for 4 weeks by LC-MS analysis; assay type: functional
MIA PaCa-2 [21] = assay: Antitumor activity against human MIA PaCa-2 cells xenografted in athymic BALB/c-nu mouse assessed as fold change in 2,6-diaminopimelicacid level in tumor at 10 mg/kg/day, ip administered five times per week for 4 weeks by LC-MS analysis; assay type: functional
MIA PaCa-2 [22] = assay: Antitumor activity against human MIA PaCa-2 cells xenografted in athymic BALB/c-nu mouse assessed as fold change in serine level in tumor at 2 mg/kg/day, ip administered five times per week for 4 weeks by LC-MS analysis; assay type: functional
PANC-1 [23] = assay: Inhibition of autophagy in human PANC-1 cells in nutrient-deprived medium assessed as downregulation of LC3-II protein expression measured after 6 hrs by Western blot analysis; assay type: functional, cell-based; settings: dose 5-20 µM
[24] = Toxicity in athymic BALB/c-nu mouse xenografted with human MIA PaCa-2 cells assessed as animal death at 2 to 10 mg/kg/day, ip administered five times per week for 4 weeks; assay type: organism-based; settings: in vivo, 672 h, dose 2-10 mg/kg/day
MIA PaCa-2 [25] = assay: Antitumor activity against human MIA PaCa-2 cells xenografted in athymic BALB/c-nu mouse assessed as fold change in D-glucuronic acid level in tumor at 2 mg/kg/day, ip administered five times per week for 4 weeks by LC-MS analysis; assay type: functional
MIA PaCa-2 [26] = assay: Antitumor activity against human MIA PaCa-2 cells xenografted in athymic BALB/c-nu mouse assessed as fold change in proline level in tumor at 2 mg/kg/day, ip administered five times per week for 4 weeks by LC-MS analysis; assay type: functional
MIA PaCa-2 [27] = assay: Inhibition of autophagy in human MIA PaCa-2 cells in nutrient-deprived medium assessed as downregulation of LC3-I protein expression measured after 6 hrs by Western blot analysis; assay type: functional, cell-based; settings: dose 5-20 µM
MIA PaCa-2 [28] = assay: Antitumor activity against human MIA PaCa-2 cells xenografted in athymic BALB/c-nu mouse assessed as fold change in alanine level in tumor at 2 mg/kg/day, ip administered five times per week for 4 weeks by LC-MS analysis; assay type: functional

In the case of COc1cc(O)c(C(=O)[C@@H]2CC=C(CCC=C(C)C)C[C@H]2c2ccccc2)c(O)c1, the inhibition (MIA PaCa-2 [1]) is reported as “inactive”, the “fold change (FC)” value (MIA PaCa-2 [2]) is reported as 0.45 and the “fold change (FC)” value (MIA PaCa-2 [3]) is reported as 0.44. For the same compound, the “fold change (FC)” value (MIA PaCa-2 [4]) was 0.51, the “fold change (FC)” value (MIA PaCa-2 [5]) was 0.36 and the “fold change (FC)” value (MIA PaCa-2 [6]) was 0.44. The “fold change (FC)” value (MIA PaCa-2 [7]) was 0.28, the “fold change (FC)” value (MIA PaCa-2 [8]) was 0.57 and the “fold change (FC)” value (MIA PaCa-2 [9]) was 0.43. For the same compound, the “fold change (FC)” value (MIA PaCa-2 [10]) was 0.4, the “fold change (FC)” value (MIA PaCa-2 [11]) was 0.31 and the inhibition at 40 µM (MIA PaCa-2 [12]) was 99%. The “fold change (FC)” value (MIA PaCa-2 [13]) was 0.44, the “fold change (FC)” value (MIA PaCa-2 [14]) was 0.38 and the Activity (PANC-1 [15]) was 24%. For the same compound, the “fold change (FC)” value (MIA PaCa-2 [16]) was 0.62, the inhibition (PANC-1 [17]) was “inactive” and the “fold change (FC)” value (MIA PaCa-2 [18]) was 0.76. For the same compound, the “fold change (FC)” value (MIA PaCa-2 [19]) was 0.47, the “fold change (FC)” value (MIA PaCa-2 [20]) was 0.16 and the “fold change (FC)” value (MIA PaCa-2 [21]) was 0.36. The “fold change (FC)” value (MIA PaCa-2 [22]) was 0.49, the inhibition (PANC-1 [23]) was “Dose-Dependent Effect” and the Activity [24] was “Non-Toxic”. For the same compound, the “fold change (FC)” value (MIA PaCa-2 [25]) was 1.03, the “fold change (FC)” value (MIA PaCa-2 [26]) was 0.62 and the inhibition (MIA PaCa-2 [27]) was “Dose-Dependent Effect”. For the same compound, the “fold change (FC)” value (MIA PaCa-2 [28]) was 0.49.
